# Data reported in patent US8097605B2, “Combination of anticholinergics and inhibitors of phosphodiesterase type 4 for the treatment of respiratory disease” (Meda Pharma GmbH & Co. KG, priority 2004, dated 2012).
# How the values were obtained:
# [1] = test system: human peripheral blood mononuclear cells (PBMCs); assay: LPS-induced TNFα release from human PBMCs/monocytes (sandwich ELISA); format: cell-based; settings: LPS 1 μg/ml
# Protocol: The influence of R,R-glycopyrrolate in combination with PDE4 inhibitors on TNF secretion was investigated by using human peripheral blood mononuclear cells (PBMCs). The study was approved by our institutional Ethics Committee according to the International Declarations of Helsinki and Tokyo.
# PBMCs were isolated from heparinized blood samples of healthy donors by density gradient centrifugation. An equal volume of Hanks buffer (Life Technologies, Heidelberg, Germany) is added to heparinized whole blood samples. 15 ml Histopaque-1077 (Sigma, Deisenhofen, Germany) are overlayed with a maximum of 40 ml of blood/Hanks mixture were centrifuged for 30 min at room temperature (2000 rpm). A visible band containing PBMCs is transferred to a fresh tube and washed twice with Hanks-buffer. Finally cells are seeded in RPMI 1640 Medium (Life Technologies, Heidelberg, Germany) with Glutamax I (Gibco BRL, Eggenstein) and 10% fetal calf serum (Boehringer Mannheim, Penzberg, Germany). After isolated, PBMCs were cultured in RPMI 1640 medium supplemented with 10% fetal calf serum (FCS) at 37° C. 5% CO2 overnight. […] by adherence method, non-adherent cells were removed by changing the medium.
# Cells are re-suspended at 10^6 cells/ml and incubated in 500 μl volumes in 24-well tissue culture plates (Falcon Becton Dickinson Labware) at 37° C., 5% CO2. After pre-incubation with test substances (0.5 μl/500 μl medium) for 30 min, cells were stimulated with lipopolysaccharide (LPS) (1 μg/ml). […]
# Cytokine measurements in culture supernatants are done by sandwich ELISA using matched antibody pairs (Pharmingen, Heidelberg, Germany). […] Plates are read at 450 nm (reference 570 nm) in a microplate reader (Dynatech). The results are expressed as a percentage of the control level of cytokines production by cells stimulated in the absence of the compound.
# [2] = test system: allergen-induced airway eosinophilia; settings: Brown Norway rats, administered intrapulmonary; cited from earlier work
# [3] = dog, in vivo, 15 mg/kg; cited from earlier work
# M1-M3 receptors = settings: cited from earlier work
# M3 muscarinic receptors = M3 muscarinic receptors (Homo sapiens, UniProt P20309); settings: kinetics studies; cited from earlier work
# M3 muscarinic receptors, sequence (P20309 whole entry): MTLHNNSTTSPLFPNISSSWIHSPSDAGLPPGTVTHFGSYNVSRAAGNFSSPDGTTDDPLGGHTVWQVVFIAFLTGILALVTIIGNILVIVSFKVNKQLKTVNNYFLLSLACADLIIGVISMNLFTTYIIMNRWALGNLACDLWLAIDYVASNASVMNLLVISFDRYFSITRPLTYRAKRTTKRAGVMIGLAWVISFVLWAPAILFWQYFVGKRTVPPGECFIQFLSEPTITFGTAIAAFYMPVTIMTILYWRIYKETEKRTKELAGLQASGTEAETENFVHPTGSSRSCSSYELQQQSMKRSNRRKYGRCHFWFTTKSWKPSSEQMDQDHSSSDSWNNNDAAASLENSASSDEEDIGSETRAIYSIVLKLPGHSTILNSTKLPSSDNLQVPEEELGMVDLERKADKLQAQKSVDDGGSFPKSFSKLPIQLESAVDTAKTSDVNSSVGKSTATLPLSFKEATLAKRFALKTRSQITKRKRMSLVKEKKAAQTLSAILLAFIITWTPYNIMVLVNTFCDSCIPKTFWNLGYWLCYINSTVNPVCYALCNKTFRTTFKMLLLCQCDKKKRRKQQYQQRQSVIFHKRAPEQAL
compound,measurement,setting,value
"C[N+]1(C)CC[C@@H](OC(=O)[C@](O)(c2ccccc2)C2CCCC2)C1.[Br-] [R,R-glycopyrrolate]",influence on LPS-induced TNFα release,"[1]; compound alone, up to 10 μmol/l",did not influence
O=C(Nc1c(Cl)cncc1Cl)C(=O)c1cn(Cc2ccc(F)cc2)c2ccc(O)cc12 [AWD 12-281],ID50 suppression of allergen-induced airway eosinophilia,[2],7 µg/kg
same,emesis,[3],no emesis was induced
COc1ccc(C2CNC(=O)C2)cc1OC1CCCC1 (centres unmarked) [rolipram],IC35 of TNFα release inhibition,[1]; rolipram alone,68.9 ± 15.2 nmol/L
same,"IC35 of TNFα release inhibition with simultaneous addition of R,R-glycopyrrolate","[1]; rolipram plus 10 μmol/l R,R-glycopyrrolate, p=0.0151",1.70 ± 1.18 nM
C[C@H]1C[C@H]2[C@@H]3CCC4=CC(=O)C=C[C@]4(C)[C@@]3(Cl)[C@@H](O)C[C@]2(C)[C@@]1(O)C(=O)CO [beclomethasone],ID50 suppression of allergen-induced airway eosinophilia,[2],0.1 µg/kg
C[N+]1(C)CCC(OC(=O)C(O)(c2ccccc2)C2CCCC2)C1 (racemic) [Glycopyrrolate],selectivity in binding to the M1-M3 receptors,M1-M3 receptors,no selectivity
same,dissociation from M3 muscarinic receptors,M3 muscarinic receptors,dissociates slowly
